Literature values, collected in patent US8518429B2, “Arsenic trioxide medical elution scaffold” (Beijing Amsino Medical Co., Ltd., priority 2007, dated 2013).

How the values were obtained:
promyelocytic leukemia = details: used by hematologists in 1970s
VSMCs = details: found by Zhuoqi ZHANG et al. and Jianwei SHAO et al.

Q: For Arsenic trioxide [As2O3], which “therapeutic effect in promyelocytic leukemia” value (promyelocytic leukemia) is on record?
A: notable therapeutic effect

Q: And the “effects on VSMCs” value (VSMCs)?
A: anti-proliferation, apoptosis promotion and cell cycle arrest
